# Patent US20020164368A1, “Male contraceptive method and composition” (priority 2000, published 2002)
# Tested on: Dutch Belted male rabbits of proven fertility
# Assay: Antifertility effects in vivo, oral dosing of male rabbits
# Set-up: species or system rabbit
# Details: administered to male rabbits, procedures of Example 4
# Procedure: The animals (of proven fertility) are then bred and the genital system of the females is examined to determine the number of embryos.
# Dutch Belted male rabbits of proven fertility were randomly selected. They were given 10 mg/kg tetradecyl sodium sulfate suspended in Ca++ free Ringer's solution by gavage. Control animals were given Ca++ free Ringer's solution by gavage. The male rabbits were dosed each day for 3 days and they were bred to females 2 hours after dosing and again 8 hours after dosing. The female rabbits were then given 100 IU human chorionic gonadotrophin (HCG) to stimulate ovulation. Twenty four hours after the last dose of tetradecyl sodium sulfate the male rabbits were bred and the females treated as before. After twelve days the female rabbits were sacrificed and examined for embryos.
row,Compound,activity as male contraceptives
1,a ethyl a sulfodocosanoate [Compound 31],activity as male contraceptives

# Target: T1, Testicular bovine hyaluronidase (Bos taurus, UniProt Q2YDK3)
# T1 construct: Testicular bovine hyaluronidase (Sigma Chemical Company); purchased Sigma Chemical Company; host or cells: bovine testes
# T1 sequence (Q2YDK3 36-553): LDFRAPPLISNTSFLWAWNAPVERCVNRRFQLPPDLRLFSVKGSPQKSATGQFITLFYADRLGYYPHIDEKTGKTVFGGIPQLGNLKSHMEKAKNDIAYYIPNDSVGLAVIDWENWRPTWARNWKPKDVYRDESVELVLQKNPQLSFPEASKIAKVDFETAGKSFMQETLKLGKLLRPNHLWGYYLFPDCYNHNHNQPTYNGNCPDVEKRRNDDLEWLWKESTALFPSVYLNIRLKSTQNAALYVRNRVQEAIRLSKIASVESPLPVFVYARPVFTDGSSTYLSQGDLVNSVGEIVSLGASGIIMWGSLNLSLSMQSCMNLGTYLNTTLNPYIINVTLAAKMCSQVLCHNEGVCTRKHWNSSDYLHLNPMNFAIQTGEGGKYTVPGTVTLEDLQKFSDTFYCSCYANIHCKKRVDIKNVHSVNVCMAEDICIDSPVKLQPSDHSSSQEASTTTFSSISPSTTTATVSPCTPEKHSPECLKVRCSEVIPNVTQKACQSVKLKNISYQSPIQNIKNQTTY
# Assay: Hyaluronidase inhibition in vitro (chondroitin sulfate agar plate)
# Assay type: biochemical
# Details: Conc. of Test Solution 1 Mg/ml
# Procedure: The inhibition of hyaluronidase was assessed using chondroitin sulfate as the enzyme substrate according to the following procedure. Agar plates containing chondroitin sulfate (0.1 percent) were prepared by the following method: water solutions of I percent agarose, 2 M sodium chloride (0.1 vol.), 1 M sodium acetate (pH 5.0, 0.1 vol), and sodium azide (0.5 mg/ml, 0.1 vol.) qe mixed and the mixture is brought to the boiling temperature. After cooling to about 65° C., a solution of chondroitin sulfate (10 mgtml, 0.1 vol.) is added. After cooling to about 45° C., the resulting mixture (20 ml) is poured onto a petri dish. The plates are allowed to cool to room temperature. A well 2 mm in diameter is then cut in the agar surface. […] A control using only the buffer solution without added test compound is also run. The plates are then incubated overnight (about 16 hours) at 37° C. The zones of hydrolysis of chondroitin sulfate by hyaluronidase are visualized by flooding the plate with 10 percent cetyl trimethyl ammonium bromide. The area of the zone is logarithmically proportional to the concentration of hyaluronidase. Inhibitor activity is determined by comparing the area of hydrolysis from the test compound to the area of hydrolysis from the control. The results are expressed as percent inhibition calculated as follows: [formula]
row,Compound,% Inhibition [%]
1,CCCCCCCCCCC(CCCCCCCC)COS(=O)(=O)O (stereo not shown) [2-octyldodecyl],0
2,"CC(C)CCCC(C)CCCC(C)CCOS(=O)(=O)[O-].[Na+] (stereo not shown) [3,7,11-trimethyldodecyl]",39
3,CC(C)CCCCCCCCCCCOS(=O)(=O)O [12-methyltridecyl],7
4,CCCCCCCCCCCCC(C)OS(=O)(=O)O (stereo not shown) [Compound 2-tetradecyl],100
5,CCCCCCCCCCC(CCC)OS(=O)(=O)[O-].[Na+] (stereo not shown) [Compound 4-tetradecyl],0
6,CCCCCCCCC(CCCCC)OS(=O)(=O)O (stereo not shown) [Compound 6-tetradecyl],12
7,CCCCCCCCCC(CCCCCC)OS(=O)(=O)O (stereo not shown) [Compound 7-hexadecyl],0
8,CCCCCCCC(CCCCCC)OS(=O)(=O)O (stereo not shown) [Compound 7-tetradecyl],0
9,CCCCCCCCC(CCCCCCC)OS(=O)(=O)O (stereo not shown) [Compound 8-hexadecyl],0
10,CCCCCCCCCC(CCCCCCCC)OS(=O)(=O)O (stereo not shown) [Compound 9-octadecyl],7
11,CCCCC/C=C\C/C=C\CCCCCCCCOS(=O)(=O)O [linoleyl],0
12,CCCC/C=C/CCCCCCCCOS(=O)(=O)[O-].[Na+] [myristeladyl],13
13,CCCC/C=C\CCCCCCCCOS(=O)(=O)O [myristoleyl],13
14,CCCCCCCCCCCCCCCCCCCCCCOS(=O)(=O)O [n-docosyl],0
15,CCCCCCCCCCCCCCCCCCCCCCCCCCCOS(=O)(=O)O [n-heptacosyl],0
16,CCCCCCCCCCCCCCCCCCCCCCCCOS(=O)(=O)O [n-tetracosyl],0
17,CCCCCCCC/C=C\CCCCCCCCOS(=O)(=O)O [oleyl],0
18,CC(C)CCCC(C)CCOS(=O)(=O)O (stereo not shown) [tetrahydrogeranyl],0

# Same assay, conditions: Conc. of Test Solution 10 Mg/ml
row,Compound,% Inhibition [%]
1,CCCCCCCCCCCCOS(=O)(=O)[O-].[Na+] [n-dodecyl],71
2,CCCCCCCCCCCCCCCCCCCCOS(=O)(=O)O [n-eicosyl],0
3,CCCCCCCCCCCOS(=O)(=O)O [n-hendecyl],100
4,CCCCCCCCCCCCCCCCCOS(=O)(=O)O [n-heptadecyl],23
5,CCCCCCCCCCCCCCCCOS(=O)(=O)O [n-hexadecyl],75
6,CCCCCCCCCCCCCCCCCCOS(=O)(=O)O [n-octadecyl],30
7,CCCCCCCCCCCCCCCOS(=O)(=O)O [n-pentadecyl],60
8,CCCCCCCCCCCCCOS(=O)(=O)O [n-tridecyl],80

# Same assay, conditions: Other salts ROSO3M; Conc. of Test Sol. 10 (mg/ul)
row,Compound,% Inhibition [%]
1,CCCCCCCCCCCCOS(=O)(=O)O.OCCNCCO [CH3(CH2)11— diethanol-ammonium],100
2,CCCCCCCCCCCCOS(=O)(=O)O.OCCN(CCO)CCO [CH3(CH2)11— triethanol-ammonium],100

# Target: T2, Acrosin (purified from boar sperm) (Sus scrofa, UniProt P08001)
# T2 construct: Acrosin (200 μl, purified from boar sperm); from tissue; host or cells: boar sperm
# T2 sequence (P08001 17-415): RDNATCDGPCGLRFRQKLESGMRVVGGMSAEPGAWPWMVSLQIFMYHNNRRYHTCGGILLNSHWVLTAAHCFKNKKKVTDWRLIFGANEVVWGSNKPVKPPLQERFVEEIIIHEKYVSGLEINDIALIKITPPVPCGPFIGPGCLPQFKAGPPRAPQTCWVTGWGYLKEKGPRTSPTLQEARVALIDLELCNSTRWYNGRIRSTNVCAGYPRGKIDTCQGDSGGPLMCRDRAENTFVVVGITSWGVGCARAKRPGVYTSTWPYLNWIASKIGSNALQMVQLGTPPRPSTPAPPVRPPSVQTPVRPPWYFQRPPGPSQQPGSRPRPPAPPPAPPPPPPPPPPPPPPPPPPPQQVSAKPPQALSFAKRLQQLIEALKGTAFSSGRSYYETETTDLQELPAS
# Assay: Acrosin inhibition in vitro (BAPNA substrate)
# Assay type: biochemical
# Details: not given
# Procedure: The inhibition of acrosin is assessed in vitro using benzoyl arginine p-nitroanilide (BAPNA) as the enzyme substrate according to the following procedure. Acrosin (200 μl, purified from boar sperm) and a solution of the test compound (200 μl, 10 mg/ml., or 50 μl, 1 mg/ml) in 0.05 M triethanolamine buffer, pH 7.8, are incubated at room temperature for 5 minutes. A control using the buffer solution without the test compound added is also run. A 200 μl-sample of the incubation mixture is then withdrawn and is added to a cuvettecontaining BAPNA (1 ml) and triethanolamine buffer (2 ml). The mixture is stirred and placed in a Gilford recording spectrophotometer. The increase in optical density at 383 mn is measured. One unit of acrosin activity is defined as the amount of acrosin which will cause an increase in optical density at 383 mn of 0.001/minute. One unit of inhibitory activity is defined as the amount of inhibitor which will cause a reduction in the increase in optical density at 383 nm of 0.001/minute.
row,Compound,acrosin inhibition activity (in words)
1,O=S(=O)([O-])Oc1ccc(OS(=O)(=O)[O-])c2ccccc12.[Na+].[Na+] [Compound 28],The following compounds have also been found to have acrosin inhibition
2,O=S(=O)([O-])Oc1c[nH]c2ccccc12.[Na+] [Compound 29],The following compounds have also been found to have acrosin inhibition

# Same assay, conditions: Conc. of Test Solution 10 Mg/ml
row,Compound,Inhibition (units/mg.)
1,CCCCCCCCCCCCOS(=O)(=O)[O-].[Na+] [n-dodecyl],0

# Same assay, conditions: Other salts ROSO3M; Conc. of Test Sol. 10 mg/ml
row,Compound,Inhibition (units/mg)
1,CCCCCCCCCCCCOS(=O)(=O)O.OCCNCCO [CH3(CH2)11— diethanol-ammonium],"90,000 units/mg"
2,CCCCCCCCCCCCOS(=O)(=O)O.OCCN(CCO)CCO [CH3(CH2)11— triethanol-ammonium],"90,000 units/mg"
